{"source": "patent US10537563B2", "about": "“Methods for treating ocular disease using inhibitors of CSF-1R” (NOVARTIS AG, priority 2016, dated 2020)", "key": {"BAF/Tel-FGFR4-Q4/sACP": {"target": "T1, BAF/Tel-FGFR4-Q4/sACP (Homo sapiens, UniProt P22455)", "T1 construct": "fused on or other part: P41212 (Transcription factor ETV6)", "test": "BaF3 proliferation assay", "assay_type": "cell-based, murine"}, "Syk (h)": {"target": "T2, Syk (h) (Homo sapiens, UniProt P43405)", "T2 construct": "purchased Invitrogen", "test": "Kinase profiling at Invitrogen", "assay_type": "biochemical"}, "MMP-9": {"tested_on": "MMP-9", "test": "MMP-9 production by human macrophages (ELISA)", "assay_type": "cell-based", "details": "low dose (0.1 μM)", "experimental": "(§1) Freshly isolated human PBMCs were used to purify human monocytes by negative selection using an indirect magnetic labeling system. […] Soluble factors such as cytokines (VEGFa, IL-6 etc.) and chemokines (IL-8, MCP-1, MMP9 etc.) in the culture supernatant were measured using commercial ELISA kits. The in vitro survival of human macrophages was measured using a commercially available CellTiter-Glo® system. Most observed results were repeated in multiple donors (n>5)."}, "Aurora_A": {"target": "Aurora_A (Homo sapiens, UniProt O14965)", "test": "In vitro kinase assay (Table 1)", "assay_type": "biochemical"}, "BaF-Tpr-MET": {"target": "T3, BaF-Tpr-MET (Homo sapiens, UniProt P08581)", "T3 construct": "expressed in transfected cells; host or cells: BaF3 (murine pro-B cell line); the other entry of the earlier key: TPR (P12270, Nucleoprotein TPR)", "test": "BaF3 proliferation assay", "assay_type": "cell-based, murine"}, "CSF_1_RK (h)": {"target": "T4, CSF_1_RK (h) (Homo sapiens, UniProt P07333)", "T4 construct": "purchased Invitrogen", "T4 sequence (P07333 20-972)": "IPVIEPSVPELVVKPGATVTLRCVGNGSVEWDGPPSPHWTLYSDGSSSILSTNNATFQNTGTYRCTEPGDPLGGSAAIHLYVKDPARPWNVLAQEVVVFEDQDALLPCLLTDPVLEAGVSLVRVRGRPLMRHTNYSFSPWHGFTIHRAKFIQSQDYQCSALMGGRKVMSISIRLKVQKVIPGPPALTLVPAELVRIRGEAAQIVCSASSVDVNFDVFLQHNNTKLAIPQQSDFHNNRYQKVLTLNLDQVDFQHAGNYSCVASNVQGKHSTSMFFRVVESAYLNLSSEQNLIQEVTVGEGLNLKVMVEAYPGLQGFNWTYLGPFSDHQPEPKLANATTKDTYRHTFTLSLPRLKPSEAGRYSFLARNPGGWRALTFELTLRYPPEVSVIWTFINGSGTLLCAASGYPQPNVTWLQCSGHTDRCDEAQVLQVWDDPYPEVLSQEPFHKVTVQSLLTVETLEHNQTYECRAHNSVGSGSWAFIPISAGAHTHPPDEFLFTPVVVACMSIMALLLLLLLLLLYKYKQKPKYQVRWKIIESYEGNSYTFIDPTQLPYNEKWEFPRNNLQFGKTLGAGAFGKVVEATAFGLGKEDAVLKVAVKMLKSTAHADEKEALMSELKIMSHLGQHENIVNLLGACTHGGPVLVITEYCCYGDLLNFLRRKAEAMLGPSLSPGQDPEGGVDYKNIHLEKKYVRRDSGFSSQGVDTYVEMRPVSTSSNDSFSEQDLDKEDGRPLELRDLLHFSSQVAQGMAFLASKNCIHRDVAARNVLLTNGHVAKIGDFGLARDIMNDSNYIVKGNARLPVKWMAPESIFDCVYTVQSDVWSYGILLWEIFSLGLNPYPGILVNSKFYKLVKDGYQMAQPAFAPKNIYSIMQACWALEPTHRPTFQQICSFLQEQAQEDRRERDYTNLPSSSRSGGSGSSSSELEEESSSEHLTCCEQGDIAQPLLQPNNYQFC", "test": "Kinase profiling at Invitrogen", "assay_type": "biochemical"}, "CDC2_cyclinB": {"target": "CDC2_cyclinB (Homo sapiens, UniProt P06493)", "test": "In vitro kinase assay (Table 1)", "assay_type": "biochemical"}, "PKC_theta": {"target": "PKC_theta (Homo sapiens, UniProt Q04759)", "test": "In vitro kinase assay (Table 1)", "assay_type": "biochemical"}, "BAF/Tel-JAK1-S1.2/sACP": {"target": "T5, BAF/Tel-JAK1-S1.2/sACP (Homo sapiens, UniProt P23458)", "T5 construct": "fused on or other part: P41212 (Transcription factor ETV6)", "T5 sequence (P23458 875-1154 limits assumed, change not shown)": "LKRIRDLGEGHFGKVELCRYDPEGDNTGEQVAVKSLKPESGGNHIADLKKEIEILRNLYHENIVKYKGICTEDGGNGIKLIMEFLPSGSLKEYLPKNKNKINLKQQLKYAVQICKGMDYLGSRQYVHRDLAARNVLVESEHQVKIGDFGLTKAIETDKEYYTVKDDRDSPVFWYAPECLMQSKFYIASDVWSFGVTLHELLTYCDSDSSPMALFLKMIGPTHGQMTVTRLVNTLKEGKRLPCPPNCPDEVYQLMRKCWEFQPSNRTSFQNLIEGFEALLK", "test": "BaF3 proliferation assay", "assay_type": "cell-based, murine"}, "JNK2alpha2": {"target": "JNK2alpha2 (Homo sapiens, UniProt P45984)", "test": "In vitro kinase assay (Table 1)", "assay_type": "biochemical"}, "Ron": {"target": "Ron (Homo sapiens, UniProt Q04912)", "test": "In vitro kinase assay (Table 1)", "assay_type": "biochemical"}, "BAF/Tel-FGR-2.1/sACP": {"target": "T6, BAF/Tel-FGR-2.1/sACP (Homo sapiens, UniProt P09769)", "T6 construct": "fused on or other part: P41212 (Transcription factor ETV6)", "test": "BaF3 proliferation assay", "assay_type": "cell-based, murine"}, "Insulin RK": {"target": "Insulin RK (Homo sapiens, UniProt P06213)", "test": "In vitro kinase assay (Table 1)", "assay_type": "biochemical"}, "BaF-PTC3-RET": {"target": "BaF-PTC3-RET (Homo sapiens, UniProt P07949)", "test": "BaF3 proliferation assay", "assay_type": "cell-based, murine"}, "Cdk7 cyclinH MAT1": {"target": "Cdk7 cyclinH MAT1 (Homo sapiens, UniProt P50613)", "test": "In vitro kinase assay (Table 1)", "assay_type": "biochemical"}, "CD206": {"tested_on": "CD206", "test": "CD206 expression in M2a macrophages", "assay_type": "cell-based, human", "experimental": "as §1"}, "Abl": {"target": "Abl (Homo sapiens, UniProt P00519)", "test": "In vitro kinase assay (Table 1)", "assay_type": "biochemical"}, "Blk": {"target": "Blk (Homo sapiens, UniProt P51451)", "test": "In vitro kinase assay (Table 1)", "assay_type": "biochemical"}, "mut_bRaf_V599E": {"target": "mut_bRaf_V599E (Homo sapiens, UniProt P15056, V600E)", "test": "In vitro kinase assay (Table 1)", "assay_type": "biochemical"}, "[1]": {"tested_on": "MCSF-dependent proliferation", "test": "MCSF-dependent proliferation", "assay_type": "cell-based", "details": "read-out: MCSF-dependent proliferation cellular EC50"}, "TAK1": {"target": "TAK1 (Homo sapiens, UniProt O43318)", "test": "In vitro kinase assay (Table 1)", "assay_type": "biochemical"}, "BAF/Tel-JAK3-S1.2/sACP": {"target": "T7, BAF/Tel-JAK3-S1.2/sACP (Homo sapiens, UniProt P52333)", "T7 construct": "fused on or other part: P41212 (Transcription factor ETV6)", "T7 sequence (P52333 822-1111 limits assumed, change not shown)": "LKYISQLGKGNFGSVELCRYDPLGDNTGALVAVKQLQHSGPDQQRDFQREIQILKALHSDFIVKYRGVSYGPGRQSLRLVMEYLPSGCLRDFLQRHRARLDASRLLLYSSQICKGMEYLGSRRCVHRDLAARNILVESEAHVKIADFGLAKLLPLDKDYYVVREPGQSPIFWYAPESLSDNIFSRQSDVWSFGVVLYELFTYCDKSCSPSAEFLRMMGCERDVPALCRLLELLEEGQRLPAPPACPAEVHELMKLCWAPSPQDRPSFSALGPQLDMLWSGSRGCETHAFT", "test": "BaF3 proliferation assay", "assay_type": "cell-based, murine"}, "PAK4": {"target": "PAK4 (Homo sapiens, UniProt O96013)", "test": "In vitro kinase assay (Table 1)", "assay_type": "biochemical"}, "Src": {"target": "Src (Homo sapiens, UniProt P12931)", "test": "In vitro kinase assay (Table 1)", "assay_type": "biochemical"}, "human monocytes": {"tested_on": "human monocytes", "test": "Human monocyte survival in culture", "assay_type": "cell-based", "details": "concentration dependent effect", "experimental": "as §1"}, "IGF-1R": {"target": "IGF-1R (Homo sapiens, UniProt P08069)", "sequence (P08069 31-1367, species assumed)": "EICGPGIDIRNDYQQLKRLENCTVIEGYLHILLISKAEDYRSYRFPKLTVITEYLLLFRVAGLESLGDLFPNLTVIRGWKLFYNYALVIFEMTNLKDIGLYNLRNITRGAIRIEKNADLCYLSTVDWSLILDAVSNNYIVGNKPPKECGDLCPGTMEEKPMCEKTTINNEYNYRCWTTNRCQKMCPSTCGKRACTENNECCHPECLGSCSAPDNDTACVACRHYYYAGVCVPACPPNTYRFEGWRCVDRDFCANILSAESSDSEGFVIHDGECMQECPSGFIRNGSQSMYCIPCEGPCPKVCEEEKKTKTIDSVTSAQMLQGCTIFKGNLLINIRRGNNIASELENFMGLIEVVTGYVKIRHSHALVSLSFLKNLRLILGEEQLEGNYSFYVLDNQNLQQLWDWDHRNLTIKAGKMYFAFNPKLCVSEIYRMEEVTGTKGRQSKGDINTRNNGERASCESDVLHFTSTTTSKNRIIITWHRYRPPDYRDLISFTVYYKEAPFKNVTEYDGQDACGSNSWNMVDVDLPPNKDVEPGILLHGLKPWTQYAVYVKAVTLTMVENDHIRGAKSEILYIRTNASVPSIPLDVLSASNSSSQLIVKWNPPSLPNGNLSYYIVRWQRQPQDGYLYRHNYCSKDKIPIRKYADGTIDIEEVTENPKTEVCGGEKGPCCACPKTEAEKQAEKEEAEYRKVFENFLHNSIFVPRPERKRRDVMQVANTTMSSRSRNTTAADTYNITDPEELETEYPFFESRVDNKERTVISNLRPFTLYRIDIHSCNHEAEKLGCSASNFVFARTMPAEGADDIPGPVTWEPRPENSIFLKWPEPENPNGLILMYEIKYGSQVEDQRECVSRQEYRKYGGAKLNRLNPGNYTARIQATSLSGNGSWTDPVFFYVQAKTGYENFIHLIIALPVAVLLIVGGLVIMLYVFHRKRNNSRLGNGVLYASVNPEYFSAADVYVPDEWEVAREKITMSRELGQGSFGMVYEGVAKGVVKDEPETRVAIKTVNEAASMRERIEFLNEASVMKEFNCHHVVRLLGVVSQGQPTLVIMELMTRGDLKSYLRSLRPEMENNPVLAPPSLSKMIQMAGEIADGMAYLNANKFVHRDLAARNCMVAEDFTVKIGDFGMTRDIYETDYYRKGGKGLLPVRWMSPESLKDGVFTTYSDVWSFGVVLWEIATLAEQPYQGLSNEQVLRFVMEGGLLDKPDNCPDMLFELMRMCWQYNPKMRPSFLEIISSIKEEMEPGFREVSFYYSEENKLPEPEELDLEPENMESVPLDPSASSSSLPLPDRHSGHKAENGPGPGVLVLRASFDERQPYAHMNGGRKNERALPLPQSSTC", "test": "In vitro kinase assay (Table 1)", "assay_type": "biochemical"}, "VEGF": {"tested_on": "VEGF", "test": "Interaction with VEGF versus CSF-1 receptor signaling", "details": "at concentrations where the signaling of the CSF-1 receptor is strongly or completely inhibited"}, "PIK4Cbeta": {"target": "PIK4Cbeta (Homo sapiens, UniProt Q9UBF8)", "test": "In vitro kinase assay (Table 1)", "assay_type": "biochemical"}, "RAF1_4_CR": {"target": "RAF1_4_CR (Homo sapiens, UniProt P04049)", "test": "In vitro kinase assay (Table 1)", "assay_type": "biochemical"}, "BAF/Tel-MER-3.2": {"target": "T8, BAF/Tel-MER-3.2 (Homo sapiens, UniProt Q12866)", "T8 construct": "fused on or other part: P41212 (Transcription factor ETV6)", "test": "BaF3 proliferation assay", "assay_type": "cell-based, murine"}, "Ck1gamma2": {"target": "Ck1gamma2 (Homo sapiens, UniProt P78368)", "test": "In vitro kinase assay (Table 1)", "assay_type": "biochemical"}, "BAF/Tel-JAK2-1.2/sACP": {"target": "T9, BAF/Tel-JAK2-1.2/sACP (Homo sapiens, UniProt O60674)", "T9 construct": "fused on or other part: P41212 (Transcription factor ETV6)", "T9 sequence (O60674 849-1124 limits assumed, change not shown)": "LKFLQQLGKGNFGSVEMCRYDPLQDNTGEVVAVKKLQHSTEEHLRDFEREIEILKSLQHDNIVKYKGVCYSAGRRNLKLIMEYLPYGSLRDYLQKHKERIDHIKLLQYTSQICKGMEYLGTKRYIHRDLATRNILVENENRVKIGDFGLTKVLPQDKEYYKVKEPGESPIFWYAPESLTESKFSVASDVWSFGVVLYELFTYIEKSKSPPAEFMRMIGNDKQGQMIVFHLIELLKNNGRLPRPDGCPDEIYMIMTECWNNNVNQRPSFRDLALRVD", "test": "BaF3 proliferation assay", "assay_type": "cell-based, murine"}, "Pim3": {"target": "Pim3 (Homo sapiens, UniProt Q86V86)", "test": "In vitro kinase assay (Table 1)", "assay_type": "biochemical"}, "BAF/Tel-EphA3-4.2/sACP": {"target": "T10, BAF/Tel-EphA3-4.2/sACP (Homo sapiens, UniProt P29320)", "T10 construct": "fused on or other part: P41212 (Transcription factor ETV6)", "test": "BaF3 proliferation assay", "assay_type": "cell-based, murine"}, "Met (h)": {"target": "T11, Met (h) (Homo sapiens, UniProt P08581)", "T11 construct": "purchased Invitrogen", "T11 sequence (P08581 25-1390)": "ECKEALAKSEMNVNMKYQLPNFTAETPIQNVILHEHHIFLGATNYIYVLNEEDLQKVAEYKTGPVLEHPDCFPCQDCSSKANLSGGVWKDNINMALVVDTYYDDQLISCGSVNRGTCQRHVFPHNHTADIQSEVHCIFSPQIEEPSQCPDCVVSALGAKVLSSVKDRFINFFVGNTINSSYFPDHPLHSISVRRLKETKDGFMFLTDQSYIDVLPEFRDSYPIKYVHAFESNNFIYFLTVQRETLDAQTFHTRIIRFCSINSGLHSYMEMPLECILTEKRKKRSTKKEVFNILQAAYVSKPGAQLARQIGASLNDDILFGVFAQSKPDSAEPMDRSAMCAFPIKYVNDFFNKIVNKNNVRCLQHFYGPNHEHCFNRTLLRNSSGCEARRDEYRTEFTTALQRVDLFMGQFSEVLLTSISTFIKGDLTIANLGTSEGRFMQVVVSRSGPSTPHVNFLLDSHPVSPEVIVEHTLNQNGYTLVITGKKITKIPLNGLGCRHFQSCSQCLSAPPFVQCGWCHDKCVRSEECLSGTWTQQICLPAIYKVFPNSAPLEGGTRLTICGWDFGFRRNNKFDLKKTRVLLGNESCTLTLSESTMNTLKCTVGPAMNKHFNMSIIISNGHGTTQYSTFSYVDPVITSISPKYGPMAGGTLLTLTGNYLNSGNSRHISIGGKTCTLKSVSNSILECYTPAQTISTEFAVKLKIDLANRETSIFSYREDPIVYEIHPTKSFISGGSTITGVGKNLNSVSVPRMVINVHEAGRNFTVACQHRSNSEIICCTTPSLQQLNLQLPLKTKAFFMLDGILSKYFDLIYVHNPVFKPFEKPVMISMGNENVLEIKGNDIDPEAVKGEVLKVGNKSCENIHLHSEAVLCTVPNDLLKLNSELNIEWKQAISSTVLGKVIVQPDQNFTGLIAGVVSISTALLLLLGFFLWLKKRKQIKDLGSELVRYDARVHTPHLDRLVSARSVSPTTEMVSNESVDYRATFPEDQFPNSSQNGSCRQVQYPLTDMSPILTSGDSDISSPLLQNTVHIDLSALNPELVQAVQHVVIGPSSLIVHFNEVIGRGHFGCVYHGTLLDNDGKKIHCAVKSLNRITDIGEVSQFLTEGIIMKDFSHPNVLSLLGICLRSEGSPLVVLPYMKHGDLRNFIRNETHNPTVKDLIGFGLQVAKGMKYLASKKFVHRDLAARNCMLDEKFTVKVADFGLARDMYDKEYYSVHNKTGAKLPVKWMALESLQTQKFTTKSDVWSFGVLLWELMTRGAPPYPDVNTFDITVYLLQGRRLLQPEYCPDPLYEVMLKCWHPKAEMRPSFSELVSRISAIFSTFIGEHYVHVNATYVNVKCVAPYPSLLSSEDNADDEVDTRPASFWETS", "test": "Kinase profiling at Invitrogen", "assay_type": "biochemical"}}}
{"smiles": "CNC(=O)c1cc(Oc2ccc3nc(NC4CCCCC4O)sc3c2)ccn1", "note": "(centres unmarked) [Compound (I)]", "values": [{"measurement": "EC50", "setting": "BAF/Tel-FGFR4-Q4/sACP", "value": "> 10", "unit": "µM"}, {"measurement": "inhibition at 0.5 µM", "setting": "Syk (h); read-out: % inhibition @ 0.5 μM, Syk (h)", "value": 32, "unit": "%"}, {"measurement": "inhibition at 5 µM", "setting": "Syk (h); read-out: % inhibition @ 5 μM, Syk (h)", "value": 36, "unit": "%"}, {"measurement": "inhibition at 20 µM", "setting": "Syk (h); read-out: % inhibition @ 20 μM, Syk (h)", "value": -15, "unit": "%"}, {"measurement": "MMP-9 production by human macrophages", "setting": "MMP-9", "value": "downregulated"}, {"measurement": "IC50", "setting": "Aurora_A", "value": "> 10", "unit": "µM"}, {"measurement": "EC50", "setting": "BaF-Tpr-MET", "value": "> 10", "unit": "µM"}, {"measurement": "inhibition at 0.5 µM", "setting": "CSF_1_RK (h); read-out: % inhibition @ 0.5 μM, CSF_1_RK (h)", "value": 97, "unit": "%"}, {"measurement": "inhibition at 5 µM", "setting": "CSF_1_RK (h); read-out: % inhibition @ 5 μM, CSF_1_RK (h)", "value": 99, "unit": "%"}, {"measurement": "inhibition at 20 µM", "setting": "CSF_1_RK (h); read-out: % inhibition @ 20 μM, CSF_1_RK (h)", "value": 95, "unit": "%"}, {"measurement": "IC50", "setting": "CDC2_cyclinB", "value": "> 25", "unit": "µM"}, {"measurement": "IC50", "setting": "PKC_theta", "value": "> 10", "unit": "µM"}, {"measurement": "EC50", "setting": "BAF/Tel-JAK1-S1.2/sACP", "value": "> 10", "unit": "µM"}, {"measurement": "IC50", "setting": "JNK2alpha2", "value": "> 10", "unit": "µM"}, {"measurement": "IC50", "setting": "Ron", "value": "> 10", "unit": "µM"}, {"measurement": "EC50", "setting": "BAF/Tel-FGR-2.1/sACP", "value": "> 10", "unit": "µM"}, {"measurement": "IC50", "setting": "Insulin RK", "value": "> 10", "unit": "µM"}, {"measurement": "EC50", "setting": "BaF-PTC3-RET", "value": "> 10", "unit": "µM"}, {"measurement": "IC50", "setting": "Cdk7 cyclinH MAT1", "value": "> 10", "unit": "µM"}, {"measurement": "CD206 expression in M2a", "setting": "CD206", "value": "dose-dependently decreased"}, {"measurement": "IC50", "setting": "Abl", "value": "> 10", "unit": "µM"}, {"measurement": "IC50", "setting": "Blk", "value": "> 10", "unit": "µM"}, {"measurement": "IC50", "setting": "mut_bRaf_V599E", "value": "> 25", "unit": "µM"}, {"measurement": "EC50", "setting": "[1]", "value": "< 0.071", "unit": "µM"}, {"measurement": "IC50", "setting": "TAK1", "value": "> 10", "unit": "µM"}, {"measurement": "EC50", "setting": "BAF/Tel-JAK3-S1.2/sACP", "value": "> 10", "unit": "µM"}, {"measurement": "IC50", "setting": "PAK4", "value": "> 10", "unit": "µM"}, {"measurement": "IC50", "setting": "Src", "value": "> 10", "unit": "µM"}, {"measurement": "concentration at which monocyte survival was significantly affected", "setting": "human monocytes", "value": "≥ 0.6", "unit": "µM"}, {"measurement": "IC50", "setting": "IGF-1R", "value": "> 10", "unit": "µM"}, {"measurement": "interaction with VEGF", "setting": "VEGF", "value": "not to interact strongly"}, {"measurement": "IC50", "setting": "PIK4Cbeta", "value": "> 25", "unit": "µM"}, {"measurement": "IC50", "setting": "RAF1_4_CR", "value": "> 25", "unit": "µM"}, {"measurement": "EC50", "setting": "BAF/Tel-MER-3.2", "value": "> 10", "unit": "µM"}, {"measurement": "IC50", "setting": "Ck1gamma2", "value": "> 10", "unit": "µM"}, {"measurement": "EC50", "setting": "BAF/Tel-JAK2-1.2/sACP", "value": "> 10", "unit": "µM"}, {"measurement": "IC50", "setting": "Pim3", "value": "> 25", "unit": "µM"}, {"measurement": "EC50", "setting": "BAF/Tel-EphA3-4.2/sACP", "value": "> 10", "unit": "µM"}, {"measurement": "inhibition at 0.5 µM", "setting": "Met (h); read-out: % inhibition @ 0.5 μM, Met (h)", "value": 0, "unit": "%"}, {"measurement": "inhibition at 5 µM", "setting": "Met (h); read-out: % inhibition @ 5 μM, Met (h)", "value": 4, "unit": "%"}, {"measurement": "inhibition at 20 µM", "setting": "Met (h); read-out: % inhibition @ 20 μM, Met (h)", "value": 37, "unit": "%"}]}
